From the NIST ThermoML archive (doi:10.1021/je700344f)
Where “and” joins values, the source holds several entries; their conditions need not be identical. Equal entries are not always repeated.

Experiments:
[1] = 101.33 kPa, Liquid
[2] = xn = mol fraction of the nth substance listed; conditions: 101 kPa, Liquid

C1COCCO1 [1,4-dioxane]
[1]
Conditions	mass density [kg/m3]	viscosity [mPa·s]
283.15 K	1046.91	1.59
293.15 K	1035.03	1.312
303.15 K	1022.71	1.102
313.15 K	1011.32	0.946
323.15 K	999.12	0.825
333.15 K	987.92	0.721
343.15 K	976.61	0.64

CN(C)c1ccccc1 [N,N-dimethylaniline]
[1]
Conditions	mass density [kg/m3]	viscosity [mPa·s]
283.15 K	969.97	1.696
293.15 K	963.01	1.439
303.15 K	956.21	1.17
313.15 K	948.34	0.981
323.15 K	940.24	0.928
333.15 K	932.71	0.911
343.15 K	924.08	0.841

CCCCCCO [hexan-1-ol]
[1]
Conditions	mass density	viscosity
283.15 K	828.23 kg/m3	7.459 mPa·s
293.15 K	821.01 kg/m3	5.335 mPa·s
303.15 K	815.92 kg/m3 and 813.96 kg/m3	3.763 mPa·s and 3.917 mPa·s
313.15 K	810.91 kg/m3	2.937 mPa·s
323.15 K	806.84 kg/m3 and 804.22 kg/m3	2.172 mPa·s and 2.276 mPa·s
333.15 K	802.91 kg/m3	1.654 mPa·s
343.15 K	798.64 kg/m3	1.411 mPa·s

CCCCCCO [hexan-1-ol] + C1COCCO1
[2]
Conditions	mass density [kg/m3]	viscosity [mPa·s]
283.15 K, x2 = 0.1835	860.24	4.488
283.15 K, x2 = 0.2675	873.31	3.52
283.15 K, x2 = 0.385	896.72	2.785
283.15 K, x2 = 0.4933	916.23	2.324
283.15 K, x2 = 0.5935	938.47	2.007
283.15 K, x2 = 0.6866	957.86	1.815
283.15 K, x2 = 0.7731	981.11	1.691
283.15 K, x2 = 0.8795	1013.54	1.601
293.15 K, x2 = 0.1835	853.33	3.221
293.15 K, x2 = 0.2675	865.64	2.707
293.15 K, x2 = 0.385	889.2	2.184
293.15 K, x2 = 0.4933	903.63	1.845
293.15 K, x2 = 0.5935	929.82	1.626
293.15 K, x2 = 0.6866	951.11	1.554
293.15 K, x2 = 0.7731	973.8	1.395
293.15 K, x2 = 0.8795	1002.74	1.311
303.15 K, x2 = 0.1835	845.02	2.632
303.15 K, x2 = 0.2675	857.53	2.121
303.15 K, x2 = 0.385	879.87	1.748
303.15 K, x2 = 0.4933	898.36	1.506
303.15 K, x2 = 0.5935	920.31	1.339
303.15 K, x2 = 0.6866	941.43	1.238
303.15 K, x2 = 0.7731	963.84	1.173
303.15 K, x2 = 0.8795	990.21	–
313.15 K, x2 = 0.1835	836.88	2.285
313.15 K, x2 = 0.2675	849.44	1.705
313.15 K, x2 = 0.385	871.16	1.431
313.15 K, x2 = 0.4933	889.72	1.254
313.15 K, x2 = 0.5935	909.94	1.127
313.15 K, x2 = 0.6866	931.85	1.053
313.15 K, x2 = 0.7731	953.63	1.002
313.15 K, x2 = 0.8795	980.82	0.965
323.15 K, x2 = 0.1835	829.74	1.699
323.15 K, x2 = 0.2675	841.13	1.403
323.15 K, x2 = 0.385	864.56	1.196
323.15 K, x2 = 0.4933	880.42	1.056
323.15 K, x2 = 0.5935	900.9	0.964
323.15 K, x2 = 0.6866	921.84	0.907
323.15 K, x2 = 0.7731	943.38	0.869
323.15 K, x2 = 0.8795	971.57	0.843
333.15 K, x2 = 0.1835	821.17	1.289
333.15 K, x2 = 0.2675	833.54	1.16
333.15 K, x2 = 0.385	856.26	1.012
333.15 K, x2 = 0.4933	869.91	0.903
333.15 K, x2 = 0.5935	890.93	0.839
333.15 K, x2 = 0.6866	911.92	0.792
333.15 K, x2 = 0.7731	933.31	0.763
333.15 K, x2 = 0.8795	958.09	0.742
343.15 K, x2 = 0.1835	815.14	1.074
343.15 K, x2 = 0.2675	824.52	0.975
343.15 K, x2 = 0.385	843.77	0.863
343.15 K, x2 = 0.4933	862.93	0.786
343.15 K, x2 = 0.5935	881.04	0.732
343.15 K, x2 = 0.6866	905.05	0.748
343.15 K, x2 = 0.7731	923.91	0.678
343.15 K, x2 = 0.8795	947.05	0.662
